# Experimental data as given in patent EP3368527B1, “PALBOCICLIB TOSYLATE” (Egis Gyógyszergyár Zrt., priority 2015, dated 2017).
# Read-outs that look alike come from different tables or passages of the source.
# How the values were obtained:
# [1] = for amount of "other unknown contaminants": change after 3 weeks of storage; for Known contaminant 2: RT 1.97 min
# [2] = WO 2005/005426, in words; cited from earlier work
# [3] = low relative humidity (10% RH); cited from earlier work
# [4] = Dynamic vapour sorption analysis (DVS): water sorption isotherms, hygroscopicity; assay type: physicochemical; conditions: 25 °C
Compound,"Known contaminant 2 (RT 1.97 min) ([1]; 3 weeks, 25 °C 90% RH) [%]","Total contamination ([1]; 3 weeks, 25 °C 90% RH) [%]","Total unknown contaminant ([1]; 3 weeks, 25 °C 90% RH) [%]","Unknown contaminant (RT 1.70 min) ([1]; 3 weeks, 25 °C 90% RH) [%]","Unknown contaminant (RT 2.56 min) ([1]; 3 weeks, 25 °C 90% RH) [%]","Water content ([1]; 3 weeks, 25 °C 90% RH) [% m/m%]","Known contaminant 2 (RT 1.97 min) ([1]; 3 weeks, 40 °C 70% RH) [%]","Total contamination ([1]; 3 weeks, 40 °C 70% RH) [%]","Total unknown contaminant ([1]; 3 weeks, 40 °C 70% RH) [%]","Unknown contaminant (RT 1.70 min) ([1]; 3 weeks, 40 °C 70% RH) [%]","Unknown contaminant (RT 2.56 min) ([1]; 3 weeks, 40 °C 70% RH) [%]","Water content ([1]; 3 weeks, 40 °C 70% RH) [% m/m%]","Known contaminant 2 (RT 1.97 min) ([1]; 3 weeks, 70 °C) [%]","Total contamination ([1]; 3 weeks, 70 °C) [%]","Total unknown contaminant ([1]; 3 weeks, 70 °C) [%]","Water content ([1]; 3 weeks, 70 °C) [% m/m%]",Total contamination ([1]; Starting sample) [%],Total unknown contaminant ([1]; Starting sample) [%],Water content ([1]; Starting sample) [% m/m%],hygroscopicity (water sorption isotherms) [4],also measured
"CC(=O)c1c(C)c2cnc(Nc3ccc(N4CCNCC4)cn3)nc2n(C2CCCC2)c1=O [palbociclib base Form A, 6-acetyl-8-cyclopentyl-5-methyl-2-{[5-(1-piperazinyl)-2-piridinyl]amino}pyrido[2,3-d]pyrimidin-7(8H)-one]",0.04,0.23,0.16,0.04,0.07,0.42,0.05,0.17,0.13,0.05,0.04,0.41,0.05,0.23,0.15,0.39,0.13,0.09,0.23,,"Known contaminant 1 (RT 1.85 min) ([1]; 3 weeks, 25 °C 90% RH): 0.03%; Unknown contaminant (RT 3.04 min) ([1]; 3 weeks, 25 °C 90% RH): 0.05%; Unknown contaminant (RT 3.04 min) ([1]; 3 weeks, 40 °C 70% RH): 0.04%; Known contaminant 1 (RT 1.85 min) ([1]; 3 weeks, 70 °C): 0.03%; Unknown contaminant (RT 1.70 min) ([1]; 3 weeks, 70 °C): 0.04%; Unknown contaminant (RT 2.56 min) ([1]; 3 weeks, 70 °C): 0.06%; Unknown contaminant (RT 3.04 min) ([1]; 3 weeks, 70 °C): 0.05%; Known contaminant 2 (RT 1.97 min) ([1]; Starting sample): 0.04%; Unknown contaminant (RT 1.70 min) ([1]; Starting sample): 0.04%; Unknown contaminant (RT 2.56 min) ([1]; Starting sample): 0.05%; amount of ""other unknown contaminants"" ([1]; in words): significantly increases"
CC(=O)c1c(C)c2cnc(Nc3ccc(N4CCNCC4)cn3)nc2n(C2CCCC2)c1=O.Cl.Cl [palbociclib di-HCI salt],,,,,,,,,,,,,,,,,,,,,water solubility [2]: suitable water solubility; amount of water absorbed [3]: > 2 m/m %
CC(=O)c1c(C)c2cnc(Nc3ccc(N4CCNCC4)cn3)nc2n(C2CCCC2)c1=O.O=S(=O)(O)CCO [palbociclib isethionate Form B],0.09,0.28,0.19,0.03,0.16,0.97,0.10,0.27,0.17,0.03,0.14,0.76,0.09,0.28,0.19,0.83,0.29,0.20,0.36,,"Unknown contaminant (RT 1.70 min) ([1]; 3 weeks, 70 °C): 0.03%; Unknown contaminant (RT 2.56 min) ([1]; 3 weeks, 70 °C): 0.16%; Known contaminant 2 (RT 1.97 min) ([1]; Starting sample): 0.09%; Unknown contaminant (RT 1.36 min) ([1]; Starting sample): 0.03%; Unknown contaminant (RT 1.70 min) ([1]; Starting sample): 0.03%; Unknown contaminant (RT 2.56 min) ([1]; Starting sample): 0.14%"
palbociclib camsylate salt (1:1) [palbociclib camsylate (1:1) salt],,,,,,,,,,,,,,,,,,,,does not exhibit significant hygroscopicity,
palbociclib citrate (1:1) monohydrate salt,,,,,,,,,,,,,,,,,,,,exhibits significant hygroscopicity,
palbociclib hydrogen chloride (1:1) salt Form E,,0.22,0.16,,,0.45,,0.19,0.13,,,0.41,,0.23,0.17,0.42,0.20,0.15,0.21,does not exhibit significant hygroscopicity,"stability ([1]; 3 weeks of storage under various forced conditions, compared to palbociclib base Form A and isethionate salt Form B, in words): more stable than the Form A base; Unknown contaminant ([1]; RT 1.70 min, 3 weeks, 25 °C 90% RH): 0.06%; Unknown contaminant ([1]; RT 1.70 min, 3 weeks, 40 °C 70% RH): 0.06%; Unknown contaminant ([1]; RT 1.70 min, 3 weeks, 70 °C): 0.06%; Unknown contaminant ([1]; RT 1.70 min, Starting sample): 0.05%; Known contaminant 2 ([1]; 3 weeks, 25 °C 90% RH): 0.06%; Known contaminant 2 ([1]; 3 weeks, 40 °C 70% RH): 0.06%; Known contaminant 2 ([1]; 3 weeks, 70 °C): 0.06%; Known contaminant 2 ([1]; Starting sample): 0.05%; Unknown contaminant ([1]; RT 2.56 min, 3 weeks, 25 °C 90% RH): 0.10%; Unknown contaminant ([1]; RT 2.56 min, 3 weeks, 40 °C 70% RH): 0.07%; Unknown contaminant ([1]; RT 2.56 min, 3 weeks, 70 °C): 0.11%; Unknown contaminant ([1]; RT 2.56 min, Starting sample): 0.10%; amount of ""other unknown contaminants"" ([1]; in words): remains unchanged; water absorption ([1]; under various storage conditions, compared to the isethionate salt, in words): significantly less water absorption"
